Tested on: 138582-337-R-J1-PDC complex spheroid viability
Experiment: Anticancer human tumor 138582-337-R-J1-PDC patient-derived Merkel cell tumor cell line growth inhibition
Conditions: for IC50: curve of first compound; for viability, T/C: stronger effect = lower value
Summary of the method: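 Multicellular complex spheroids of tumor cells with human endothelial cells (HUVEC) and mesenchymal stem cells; the LSD1 inhibitor iadademstat was combined with standard-of-care or investigational agents. Top concentration at or near clinical Cmax, half-log dilutions; final DMSO ≤0.25%.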

[1] = second compound 0.1 µM, first compound 0.0316 µM
[2] = second compound 0.1 µM, first compound 0.1 µM
[3] = second compound 0.1 µM, first compound 0.316 µM
[4] = second compound 0.1 µM, first compound 1 µM
[5] = second compound 0.316 µM, first compound 0.0316 µM
[6] = second compound 0.316 µM, first compound 0.1 µM
[7] = second compound 0.316 µM, first compound 0.316 µM
[8] = second compound 0.316 µM, first compound 1 µM
[9] = second compound 1 µM, first compound 0.0316 µM
[10] = second compound 1 µM, first compound 0.1 µM
[11] = second compound 1 µM, first compound 0.316 µM
[12] = second compound 1 µM, first compound 1 µM
[13] = second compound 3.16 µM, first compound 0.0316 µM
[14] = second compound 3.16 µM, first compound 0.1 µM
[15] = second compound 3.16 µM, first compound 0.316 µM
[16] = second compound 3.16 µM, first compound 1 µM
[17] = second compound 10 µM, first compound 0.0316 µM
[18] = second compound 10 µM, first compound 0.1 µM
[19] = second compound 10 µM, first compound 0.316 µM
[20] = second compound 10 µM, first compound 1 µM
[21] = second compound 0.1 µM, first compound 0.00949 µM
[22] = second compound 0.1 µM, first compound 0.03 µM
[23] = second compound 0.1 µM, first compound 0.0949 µM
[24] = second compound 0.1 µM, first compound 0.3 µM
[25] = second compound 0.1 µM, first compound 0.949 µM
[26] = second compound 0.1 µM, first compound 3 µM
[27] = second compound 0.316 µM, first compound 0.00949 µM
[28] = second compound 0.316 µM, first compound 0.03 µM
[29] = second compound 0.316 µM, first compound 0.0949 µM
[30] = second compound 0.316 µM, first compound 0.3 µM
[31] = second compound 0.316 µM, first compound 0.949 µM
[32] = second compound 0.316 µM, first compound 3 µM
[33] = second compound 1 µM, first compound 0.00949 µM
[34] = second compound 1 µM, first compound 0.03 µM
[35] = second compound 1 µM, first compound 0.0949 µM
[36] = second compound 1 µM, first compound 0.3 µM
[37] = second compound 1 µM, first compound 0.949 µM
[38] = second compound 1 µM, first compound 3 µM
[39] = second compound 3.16 µM, first compound 0.00949 µM
[40] = second compound 3.16 µM, first compound 0.03 µM
[41] = second compound 3.16 µM, first compound 0.0949 µM
[42] = second compound 3.16 µM, first compound 0.3 µM
[43] = second compound 3.16 µM, first compound 0.949 µM
[44] = second compound 3.16 µM, first compound 3 µM
[45] = second compound 10 µM, first compound 0.00949 µM
[46] = second compound 10 µM, first compound 0.03 µM
[47] = second compound 10 µM, first compound 0.0949 µM
[48] = second compound 10 µM, first compound 0.3 µM
[49] = second compound 10 µM, first compound 0.949 µM
[50] = second compound 10 µM, first compound 3 µM
[51] = second compound 0.1 µM, first compound 0.00316 µM
[52] = second compound 0.1 µM, first compound 0.01 µM
[53] = second compound 0.316 µM, first compound 0.00316 µM
[54] = second compound 0.316 µM, first compound 0.01 µM
[55] = second compound 1 µM, first compound 0.00316 µM
[56] = second compound 1 µM, first compound 0.01 µM
[57] = second compound 3.16 µM, first compound 0.00316 µM
[58] = second compound 3.16 µM, first compound 0.01 µM
[59] = second compound 10 µM, first compound 0.00316 µM
[60] = second compound 10 µM, first compound 0.01 µM
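Further: spheroids exposed to agents for 7 days.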
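Wherever viability, T/C is given: 100% = DMSO vehicle control viability.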

## CC1(C)CCC(CN2CCN(c3ccc(C(=O)NS(=O)(=O)c4ccc(NCC5CCOCC5)c([N+](=O)[O-])c4)c(Oc4cnc5[nH]ccc5c4)c3)CC2)=C(c2ccc(Cl)cc2)C1 + NC1CC1c1ccc(-c2cccc(O)c2)cc1
Second compound 0.1 µM
  IC50: 3.98 µM
Second compound 0.316 µM
  IC50: 3.76 µM
Second compound 1 µM
  IC50: 4.03 µM
Second compound 3.16 µM
  IC50: 3.27 µM
Second compound 10 µM
  IC50: 3.55 µM
[1]
  viability, T/C: 63.8%
[2]
  viability, T/C: 55.9%
[3]
  viability, T/C: 56.7%
[4]
  viability, T/C: 66.3%
Second compound 0.1 µM, first compound 3.16 µM
  viability, T/C: 66.6%
Second compound 0.1 µM, first compound 10 µM
  viability, T/C: 2.31%
[5]
  viability, T/C: 70.8%
[6]
  viability, T/C: 63%
[7]
  viability, T/C: 59.4%
[8]
  viability, T/C: 67.9%
Second compound 0.316 µM, first compound 3.16 µM
  viability, T/C: 58.1%
Second compound 0.316 µM, first compound 10 µM
  viability, T/C: 2.2%
[9]
  viability, T/C: 69.7%
[10]
  viability, T/C: 64.2%
[11]
  viability, T/C: 78%
[12]
  viability, T/C: 64%
Second compound 1 µM, first compound 3.16 µM
  viability, T/C: 63.5%
Second compound 1 µM, first compound 10 µM
  viability, T/C: 1.33%
[13]
  viability, T/C: 62.9%
[14]
  viability, T/C: 68.5%
[15]
  viability, T/C: 57.9%
[16]
  viability, T/C: 65.3%
Second compound 3.16 µM, first compound 3.16 µM
  viability, T/C: 51.6%
Second compound 3.16 µM, first compound 10 µM
  viability, T/C: 2.03%
[17]
  viability, T/C: 62.3%
[18]
  viability, T/C: 69.8%
[19]
  viability, T/C: 72.9%
[20]
  viability, T/C: 70.4%
Second compound 10 µM, first compound 3.16 µM
  viability, T/C: 55.6%
Second compound 10 µM, first compound 10 µM
  viability, T/C: 1.17%

## CCN(c1cc(-c2ccc(CN3CCOCC3)cc2)cc(C(=O)NCc2c(C)cc(C)[nH]c2=O)c1C)C1CCOCC1 + NC1CC1c1ccc(-c2cccc(O)c2)cc1
Second compound 0.1 µM
  IC50: > 3 µM
Second compound 0.316 µM
  IC50: > 3 µM
Second compound 1 µM
  IC50: > 3 µM
Second compound 3.16 µM
  IC50: > 3 µM
Second compound 10 µM
  IC50: > 3 µM
[21]
  viability, T/C: 76.8%
[22]
  viability, T/C: 69.5%
[23]
  viability, T/C: 53.6%
[24]
  viability, T/C: 59.3%
[25]
  viability, T/C: 66.9%
[26]
  viability, T/C: 64.6%
[27]
  viability, T/C: 80.8%
[28]
  viability, T/C: 81%
[29]
  viability, T/C: 77.9%
[30]
  viability, T/C: 66.6%
[31]
  viability, T/C: 59%
[32]
  viability, T/C: 67.1%
[33]
  viability, T/C: 78.3%
[34]
  viability, T/C: 72.7%
[35]
  viability, T/C: 77.1%
[36]
  viability, T/C: 66.8%
[37]
  viability, T/C: 64.7%
[38]
  viability, T/C: 60.5%
[39]
  viability, T/C: 75.8%
[40]
  viability, T/C: 84.9%
[41]
  viability, T/C: 82%
[42]
  viability, T/C: 75.2%
[43]
  viability, T/C: 59.4%
[44]
  viability, T/C: 66.9%
[45]
  viability, T/C: 63.7%
[46]
  viability, T/C: 91.8%
[47]
  viability, T/C: 74%
[48]
  viability, T/C: 80.3%
[49]
  viability, T/C: 61.4%
[50]
  viability, T/C: 72.4%

## COc1cc(Nc2ncc3c(n2)-c2ccc(Cl)cc2C(c2c(F)cccc2OC)=NC3)ccc1C(=O)O + NC1CC1c1ccc(-c2cccc(O)c2)cc1
Second compound 0.1 µM
  IC50: 0.355 µM
Second compound 0.316 µM
  IC50: 0.21 µM
Second compound 1 µM
  IC50: 0.222 µM
Second compound 3.16 µM
  IC50: 0.183 µM
Second compound 10 µM
  IC50: 0.463 µM
[51]
  viability, T/C: 66.5%
[52]
  viability, T/C: 76.5%
[1]
  viability, T/C: 61.4%
[2]
  viability, T/C: 66.4%
[3]
  viability, T/C: 51.9%
[4]
  viability, T/C: 28.4%
[53]
  viability, T/C: 64.7%
[54]
  viability, T/C: 69.4%
[5]
  viability, T/C: 60.1%
[6]
  viability, T/C: 64.3%
[7]
  viability, T/C: 42.1%
[8]
  viability, T/C: 30.6%
[55]
  viability, T/C: 70.8%
[56]
  viability, T/C: 79.4%
[9]
  viability, T/C: 64.9%
[10]
  viability, T/C: 59%
[11]
  viability, T/C: 46.7%
[12]
  viability, T/C: 33.2%
[57]
  viability, T/C: 70.4%
[58]
  viability, T/C: 89.8%
[13]
  viability, T/C: 82.5%
[14]
  viability, T/C: 60.7%
[15]
  viability, T/C: 41.9%
[16]
  viability, T/C: 38.8%
[59]
  viability, T/C: 82.6%
[60]
  viability, T/C: 97%
[17]
  viability, T/C: 80.2%
[18]
  viability, T/C: 80.9%
[19]
  viability, T/C: 57.2%
[20]
  viability, T/C: 34.8%

## Cn1ncnc1C1c2n[nH]c(=O)c3cc(F)cc(c23)NC1c1ccc(F)cc1 (stereo not given) + NC1CC1c1ccc(-c2cccc(O)c2)cc1
Second compound 0.1 µM
  IC50: > 0.1 µM
Second compound 0.316 µM
  IC50: > 0.1 µM
Second compound 1 µM
  IC50: > 0.1 µM
Second compound 3.16 µM
  IC50: > 0.1 µM
Second compound 10 µM
  IC50: > 0.1 µM
Second compound 0.1 µM, first compound 0.000316 µM
  viability, T/C: 88.1%
Second compound 0.1 µM, first compound 0.001 µM
  viability, T/C: 80.2%
[51]
  viability, T/C: 83.3%
[52]
  viability, T/C: 69.9%
[1]
  viability, T/C: 62.3%
[2]
  viability, T/C: 67.3%
Second compound 0.316 µM, first compound 0.000316 µM
  viability, T/C: 72.5%
Second compound 0.316 µM, first compound 0.001 µM
  viability, T/C: 88.3%
[53]
  viability, T/C: 74.2%
[54]
  viability, T/C: 71%
[5]
  viability, T/C: 66%
[6]
  viability, T/C: 70.7%
Second compound 1 µM, first compound 0.000316 µM
  viability, T/C: 79.8%
Second compound 1 µM, first compound 0.001 µM
  viability, T/C: 83.7%
[55]
  viability, T/C: 73%
[56]
  viability, T/C: 86.2%
[9]
  viability, T/C: 82.2%
[10]
  viability, T/C: 77%
Second compound 3.16 µM, first compound 0.000316 µM
  viability, T/C: 80.4%
Second compound 3.16 µM, first compound 0.001 µM
  viability, T/C: 91.3%
[57]
  viability, T/C: 82.5%
[58]
  viability, T/C: 81.1%
[13]
  viability, T/C: 72.1%
[14]
  viability, T/C: 77.5%
Second compound 10 µM, first compound 0.000316 µM
  viability, T/C: 99%
Second compound 10 µM, first compound 0.001 µM
  viability, T/C: 96.1%
[59]
  viability, T/C: 100%
[60]
  viability, T/C: 84.3%
[17]
  viability, T/C: 82.7%
[18]
  viability, T/C: 81.2%

## NS(=O)(=O)OCC1CC(n2ccc3c(NC4CCc5ccccc54)ncnc32)CC1O (stereo not given) + NC1CC1c1ccc(-c2cccc(O)c2)cc1
Second compound 0.1 µM
  IC50: 0.0789 µM
Second compound 0.316 µM
  IC50: 0.0737 µM
Second compound 1 µM
  IC50: 0.0726 µM
Second compound 3.16 µM
  IC50: 0.1 µM
Second compound 10 µM
  IC50: 0.141 µM
[21]
  viability, T/C: 83.6%
[22]
  viability, T/C: 63.1%
[23]
  viability, T/C: 48.4%
[24]
  viability, T/C: 34.3%
[25]
  viability, T/C: 15.5%
[26]
  viability, T/C: 15%
[27]
  viability, T/C: 72.6%
[28]
  viability, T/C: 59%
[29]
  viability, T/C: 48.4%
[30]
  viability, T/C: 34.3%
[31]
  viability, T/C: 24.2%
[32]
  viability, T/C: 15.6%
[33]
  viability, T/C: 82.2%
[34]
  viability, T/C: 56.3%
[35]
  viability, T/C: 50.3%
[36]
  viability, T/C: 35.8%
[37]
  viability, T/C: 15.6%
[38]
  viability, T/C: 14.6%
[39]
  viability, T/C: 86.2%
[40]
  viability, T/C: 63.7%
[41]
  viability, T/C: 51.7%
[42]
  viability, T/C: 40.7%
[43]
  viability, T/C: 17.4%
[44]
  viability, T/C: 14%
[45]
  viability, T/C: 103%
[46]
  viability, T/C: 68.1%
[47]
  viability, T/C: 65.6%
[48]
  viability, T/C: 37.1%
[49]
  viability, T/C: 20.4%
[50]
  viability, T/C: 16.1%
